Assay results taken from US8354381B2, “Peptide compositions for oral care systems” (E I du Pont de Nemours and Company, priority 2009, dated 2013).
Where no end group is shown, it is not given here. The star is where a group is joined. Biotin = O=C1N[C@H]2[C@H](CS[C@H]2CCCCC(=O)*)N1

Experiments:
[1] = Phage ELISA, bovine enamel-binding assay; settings: over 10^10 pfu phage, unpolished bovine enamel, A450
Description: A total of 11 selected phage candidates (Example 3) was used in a phage ELISA experiment. Purified phage lysates were used for binding to the enamel blocks using an anti-M13 phage antibody conjugated to horseradish-peroxidase, followed by the addition of chromogenic agent TMB. The plates were read at A450 nm.
For each phage candidate to be tested, the polished and unpolished enamel blocks were incubated for 1 h at room temperature with 200 μL of blocking buffer, consisting of 2% non-fat dry milk (Schleicher & Schuell, Inc.) in TBS. […] The tube was rinsed 6 times with wash buffer consisting of TBST-0.05%. The wells were filled with 200 μL of TBST-0.5% containing 1 mg/mL BSA and then 10 μL (over 10^10 pfu) of purified phage stock was added. The samples were incubated at room temperature for 60 min with slow shaking. The non-binding phage was removed by washing 6 times with TBST-0.5%. […] The conjugate solution was removed and was washed 6 times with TBST-0.5%. […] BoEn P means bovine polished enamel and BoEn means bovine enamel.

[2] = test system: pellicle coated bovine enamel; assay: Phage ELISA of brushed 8 hr pellicle candidates, screened with 30 min in vivo pellicle (Example 8); assay type: binding, human; settings: 10^11 pfu phage, 30 min in vivo pellicle on bovine enamel, normalized to DenP3
Description: (§1) A total of 18 selected phage candidates were used in a phage ELISA Experiment. Purified phage lysates were used for binding to pellicle coated bovine enamel using an anti-M13 phage antibody conjugated to horseradish-peroxidase, followed by the addition of chromogenic agent TMB. The plates were read at A450 nm.
The wells were rinsed 2 times with wash buffer consisting of PBST. The wells were filled with 1 mL of 10^11 pfu purified phage stock which was prepared by diluting in blocking buffer. […] The non-binding phage was removed by washing 5 times with PBST. Then, 500 μL of horseradish peroxidase/anti-M13 antibody conjugate (Amersham USA, Piscataway, N.J.), diluted 1:500 in the blocking buffer, was added and incubated for 45 min at room temperature. The conjugate solution was removed and was washed 5 times with PBST.

[3] = Peptide-mediated deposition of Co-NTA beads on bovine enamel, SEM; assay type: binding; settings: 20 μM peptide; for Particles per um^2 at 5000X: then Co-NTA TALON beads, SEM at 5000X
Excerpt: Bovine enamel incisors were obtained from SE Dental (Baton Rouge, La.). Teeth were sectioned and cut into enamel slabs approx. 5 mm on each side using a DREMEL® rotary (Robert Bosch LLC, Farmington Hills, Mich.) saw with a diamond blade. The enamel slabs were cleaned and embedded in a well plate contained molding material so as to only expose the enamel surface in the well.
Polystyrene beads with cobalt-NTA coating (DYNABEADS® TALON®) were obtained from Invitrogen (item#101.02D) as a slurry of 40 mg/mL. The slurry (50 μL; 2 mg beads) was resuspended and washed with 700 μL of binding buffer (50 mM sodium phosphate, pH 8.0, 300 mM NaCI, 0.01% TWEEN® 20) in preparation for His6 binding.
Peptides were dissolved in phosphate buffered saline (Pierce, pH 7.2) at a concentration of 20 μM. Peptide solution (500 μL) was placed in each well containing an enamel slab. Enamel slabs exposed to only PBS in this step were used as a control. Samples were incubated with peptide solution with gentle agitation for 30 min. The peptide solution and PBS were removed from the well plate and each well was rinsed 3 times with repeated additions of PBS. TALON® beads (50 μL) were added to each well and incubated with gentle agitation for 30 min. The TALON® solution was removed and the samples were washed three times with the same binding buffer.
Each enamel sample was removed from the well plate and rinsed again with buffer. […] The enamel slabs were further examined by Electron Microscopy (Hitachi TM-1000 Tabletop SEM Microscope) at 1000×, 2500× and 5000× magnification. […] Little to no beads were found on the no peptide control. […]

[4] = test system: pellicle coated enamel substrates; settings: 20 μM biotinylated peptide, streptavidin-HRP, normalized to DenP03, three replicates
Description: A total of 20 synthetic peptides were manufactured using sequences obtained from Table 6. Peptides were obtained from SynBioSci Corp. (Livermore, Calif.) and included an additional sequence (SSRP; SEQ ID NO: 118) at the N-terminus and biotin labeled lysine at the C-terminus.
Enamel substrates were cut into approximately 7 mm squares and mounted on wax mounting for incubation in the mouth for 30 min to form a pellicle coated surface. The pellicle coated enamel substrates were removed from the wax backing and placed in well plates with the pellicle surface exposed as in Example 5. Each pellicle coated substrate was incubated for 1 h at room temperature (˜22° C.) with 1 mL of blocking buffer, consisting of 1 mg/mL BSA in PBST (Pierce BUPH™ #28372 with 0.1% TWEEN® 20). The blocking buffer was removed by aspirating the liquid out of each well. The tube was rinsed 2 times with wash buffer consisting of PBST. The wells were filled with 500 μL of 20 μM peptide solution which was prepared by diluting in blocking buffer. The samples were incubated for 30 min with slow shaking at 37° C. The non-binding peptide was removed by washing 6 times with PBST. Then, 500 μL of horseradish peroxidase/streptavidin conjugate (Pierce #22127), diluted 1:2000 in PBST, was added and incubated for 1 h at room temperature (˜22° C.). The conjugate solution was removed and was washed 4 times with PBST.
Each enamel substrate was removed from the well and washed again in a 15-mL test tube with 10 mL of PBST. Each enamel substrate was then mounted in a clean well plate with only the enamel surface exposed. A 1:1 solution of TMB substrate and H2O2 (200 μL) was added to each well and the color was allowed to develop for between 10 to 20 min, typically for 15 min, at room temperature (˜22° C.). Then, 100 μL of solution from each well was transferred to a 96 well reading plate containing stop solution (100 μL of 2 M H2SO4) in each well. The A450 was measured using a microplate spectrophotometer (Molecular Devices, Sunnyvale, Calif.). […] Each sequence was tested with three replicate enamel coated pellicle substrates.

[5] = test system: pellicle coated bovine enamel; assay: Phage ELISA on pellicle coated bovine enamel (Example 6); assay type: binding, human; settings: 10^11 pfu phage, 30 min in vivo pellicle on bovine enamel, normalized to an internal control
Description: as §1, with “29” for “18”, “candidates from Table 5” for “candidates”, “in” for “in a”, “Experiment to determine binding affinity and coverage of each phage on pellicle substrates.” for “Experiment.”
The wells were filled with 1 mL of 10^11 pfu purified phage stock which was prepared by diluting in blocking buffer. […] The non-binding phage was removed by washing 5 times with PBST. […] The conjugate solution was removed and was washed 3 times with PBST.

Molecule | O.D.450 (normalized) [2] | also measured
AANPHTEWDRDAFQLAMPPK (Synthetic oral-surface binding peptide) [BoEn 1] | – | O.D.450 [1]: 1.402
AIEYQHSATTPWTMRTRLPP (Synthetic oral-surface binding peptide) [DenP101] | 0.467 | –
DGYKLQTSLDWQMWNP (Synthetic oral-surface binding peptide) [DenP111] | 1.051 | –
EFYPFAEVPPEKSGIGRQVF (Synthetic oral-surface binding peptide) [DenP102] | 0.520 | –
FPSKWYNHHRHITGHV (Synthetic oral-surface binding peptide) [DenP112] | 0.413 | –
GGMGALESYRQWNHLA (Synthetic oral-surface binding peptide) [DenP113] | 1.348 | –
GINKGQRPPWESWHEN (Synthetic oral-surface binding peptide) [DenP114] | 0.703 | –
GVHQYSRPTVPSYLWTSGQH (Synthetic oral-surface binding peptide) [DenP103] | 0.879 | –
GYGQYVSQQTWAHSNK (Synthetic oral-surface binding peptide) [DenP115] | 0.501 | –
GYQPHYVDHTIGWQPMIRPN (Synthetic oral-surface binding peptide) [DenP104] | 0.790 | –
HDHLSWWGQFDRQNLL (Synthetic oral-surface binding peptide) [DenP116] | 1.055 | –
LNDQRKPGPPTMPTHSPAVG (Synthetic oral-surface binding peptide) [BoEn 5] | – | O.D.450 [1]: 0.944
MPGHQESIKVQNWNRV (Synthetic oral-surface binding peptide) [DenP117] | 0.433 | –
NLHSPWPSHAAHHWST (Synthetic oral-surface binding peptide) [DenP118] | 0.641 | –
NQQMKLVPQHWHRAQP (Synthetic oral-surface binding peptide) [DenP119] | 1.051 | –
NTCATSPNSYTCSN (Synthetic oral-surface binding peptide) [BoEn 6] | – | O.D.450 [1]: 2.38
PHMASMTGGQQMGSYSETPNDQKPNPHYKVSGTKGPEEAAKKEEAAKKPAYSETPNDQKPNPHYKVSGTKGSGGGGSGSGGGGSLNSMSDKHHGHQNTATRNQHGGGLNSMSDKHHGHQNTATRNQHGGHHHHHH [DE008] | – | Particles per um^2 at 5000X [3]: 0.31 Particles per um^2
QFNQTSHSFMHGTSGYVPGK (Synthetic oral-surface binding peptide) [DenP105] | 0.470 | –

Molecule | O.D.450 (normalized) [2] | also measured
SDCTAGLVPPLCAT (Synthetic oral-surface binding peptide) [BoEn 7] | – | O.D.450 [1]: 0.892
SFSWHRGDWELGHQSKTMGM (Synthetic oral-surface binding peptide) [DenP106] | 1.524 | –
SMWHDITKRYRNPSEMVSAY (Synthetic oral-surface binding peptide) [DenP107] | 0.726 | –
SSRPQVPDYLSPTHQKKAFLEIPTK(Biotin) [DenP29-A] | – | O.D.450 (normalized) [4]: 0.468
SSRPSEARARTFNDHTTPMPIIK(Biotin) [DenP14-A] | – | O.D.450 (normalized) [4]: 0.269
SSRPTMTNHVYNSYTEKHSSTHRSK(Biotin) [DenP2-A] | – | O.D.450 (normalized) [4]: 0.273
SSRPTTGSSSQADTSASMSIVPAHK(Biotin) [DenP17-A] | – | O.D.450 (normalized) [4]: 0.143
SSRPTYQGVPSWPAVIDDAIRRK(Biotin) [DenP19-A] | – | O.D.450 (normalized) [4]: 0.712
SSRPVEPATKNMREARSSTQMRRIK(Biotin) [DenP4-A] | – | O.D.450 (normalized) [4]: 0.803
SSRPVNPNWVETQALHQPPGNTK(Biotin) [DenP20-A] | – | O.D.450 (normalized) [4]: 0.590
SSRPYLLPKDQTTAPQVTPIVQHKK(Biotin) [DenP5-A] | – | O.D.450 (normalized) [4]: 0.462
THGNKHQSWTYPSEINHKNY (Synthetic oral-surface binding peptide) [DenP108] | 1.149 | –
TTYHYKNIYQESYQQRNPAV (Synthetic oral-surface binding peptide) [DenP3] | 1.000 | O.D.450 (normalized) [5]: 2.495
VGTMKQHPTTTQPPRVSATN (Synthetic oral-surface binding peptide) [BoEn 9] | – | O.D.450 [1]: 0.568
WHEPHQFSGENTDYSSSMGT (Synthetic oral-surface binding peptide) [DenP109] | 0.716 | –
YSETPNDQKPNPHYKVSGTK (Synthetic oral-surface binding peptide) [BoEn 10] | – | O.D.450 [1]: 3.942
PGSGGGGSPYSETPNDQKPNPHYKVSGTKGPEPEPEPEPIPEPPKEAPVVIEKPKPKPKPKPKPPAYSETPNDQKPNPHYKVSGTKGPGGHHHHHH (Synthetic peptide composition) PGSGGGGSPYSETPNDQKPNPHYKVSGTKGPEPEPEPEPIPEPPKEAPVVIEKPKPKPKPKPKPPAYSETPNDQKPNPHYKVSGTKGPGGHHHHHH | – | Particles per um^2 at 5000X [3]: 0.39 Particles per um^2
PGSGGGGSPYSETPNDQKPNPHYKVSGTKGPEEAAKKEEAAKKPAYSETPNDQKPNPHYKVSGTKGPGGHHHHHH (Synthetic peptide composition) PGSGGGGSPYSETPNDQKPNPHYKVSGTKGPEEAAKKEEAAKKPAYSETPNDQKPNPHYKVSGTKGPGGHHHHHH | – | Bead coverage by electron microscopy (in words) ([3]; Co-NTA beads, SEM 1000×, 2500×, 5000×): bead binding at a lower degree than the other samples; Particles per um^2 at 5000X [3]: 0.17 Particles per um^2
